Earlier results on one molecule are cited in US20130230587A1, “SUSTAINED RELEASE COMPOSITIONS” (Rubicon Research Private Limited, priority 2010, published 2013).

As to `COc1ccc2c(c1)[C@]13CCCC[C@@H]1[C@H](C2)N(C)CC3` [Dextromethorphan], the “Time to peak plasma concentrations” value (absorbed from the gastrointestinal tract) was “approximately 2.5 hours”. The Plasma elimination half-life (in vivo) is 1.2 to 3.9 h.
